# Measurements reported in ChEMBL document CHEMBL1201862, “PubChem BioAssay data set” (2004).
#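 Exposure lasted 48 hours, with cells grown in 96-well plates and compounds tested at five concentrations. GI50: concentration for 50% inhibition of growth.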 Calls of active or inactive are those of the source. Cut-off read from the data, not from the text of the source: active = GI50 up to about 1.1 µM and inactive = higher.
# How the values were obtained:
# Assay in all cases: NCI anticancer screen, dose series, 48 h
# [1] = test system: HCC 2998
# [2] = test system: 786-0
# [3] = test system: A498
# [4] = test system: NCI-H522
# [5] = test system: ACHN
# [6] = test system: SW-620
# [7] = test system: SN12C
# [8] = test system: SF-268
# [9] = test system: HCT-15
# [10] = test system: UACC-257
# [11] = test system: HT-29
# [12] = test system: UO-31
# [13] = test system: HL-60
# [14] = test system: LXFL 529
# [15] = test system: KM12
# [16] = test system: RXF 393
# [17] = test system: SF-539
# [18] = test system: SK-MEL-28
# [19] = test system: EKVX
# [20] = test system: MDA-MB-231
SMILES,GI50 [1],GI50 [2],GI50 [3],GI50 [4],GI50 [5],GI50 [6],GI50 [7],GI50 [8],GI50 [9],GI50 [10],GI50 [11],GI50 [12],GI50 [13],GI50 [14],GI50 [15],GI50 [16],GI50 [17],GI50 [18],GI50 [19],GI50 [20]
Nc1ccc(C(=O)O)c2[nH]c3ccccc3c(=O)c12,> 100 µM (inactive),> 100 µM (inactive),> 100 µM (inactive),> 100 µM (inactive),> 100 µM (inactive),> 100 µM (inactive),> 100 µM (inactive),> 100 µM (inactive),> 100 µM,> 100 µM (inactive),> 100 µM (inactive),> 100 µM (inactive),> 100 µM (inactive),> 100 µM (inactive),> 100 µM (inactive),> 100 µM (inactive),> 100 µM (inactive),–,–,–
CCOC(=O)c1cnc2[nH]c(=O)c3ccccc3n2c1=O,–,> 100 µM (inactive),–,> 100 µM (inactive),> 100 µM (inactive),> 100 µM (inactive),> 100 µM (inactive),94.6 µM (inactive),> 100 µM,> 100 µM (inactive),> 100 µM (inactive),> 100 µM (inactive),85.5 µM (inactive),> 100 µM (inactive),> 100 µM (inactive),> 100 µM (inactive),> 100 µM (inactive),> 100 µM (inactive),> 100 µM (inactive),–
CCCC(N)C(=O)c1ccccc1 (stereo not given),> 100 µM (inactive),> 100 µM (inactive),> 100 µM (inactive),> 100 µM (inactive),> 100 µM (inactive),> 100 µM (inactive),> 100 µM (inactive),> 100 µM (inactive),> 100 µM,> 100 µM (inactive),> 100 µM (inactive),> 100 µM (inactive),> 100 µM (inactive),> 100 µM (inactive),> 100 µM (inactive),> 100 µM (inactive),> 100 µM (inactive),> 100 µM (inactive),> 100 µM (inactive),–
CCN(CC)CCCCC1CCN(CC(=O)N2c3ccccc3NC(=O)c3ccccc32)CC1,> 100 µM (inactive),> 100 µM (inactive),> 100 µM (inactive),> 100 µM (inactive),–,> 100 µM (inactive),> 100 µM (inactive),> 100 µM (inactive),–,48.1 µM (inactive),46.7 µM (inactive),> 100 µM (inactive),> 100 µM (inactive),> 100 µM (inactive),> 100 µM (inactive),–,> 100 µM (inactive),> 100 µM (inactive),> 100 µM (inactive),–
CC1CCCCc2nc3c(c(=O)n21)CCCC3 (stereo not given),> 100 µM (inactive),> 100 µM (inactive),–,> 100 µM (inactive),> 100 µM (inactive),> 100 µM (inactive),> 100 µM (inactive),> 100 µM (inactive),> 100 µM,> 100 µM (inactive),> 100 µM (inactive),> 100 µM (inactive),–,> 100 µM (inactive),> 100 µM (inactive),–,> 100 µM (inactive),> 100 µM (inactive),–,–
CC1(C)c2ccccc2C(C)(C)C(C(=O)Nc2ccccc2)C1C(=O)O (stereo not given),> 100 µM (inactive),> 100 µM (inactive),> 100 µM (inactive),> 100 µM (inactive),> 100 µM (inactive),> 100 µM (inactive),> 100 µM (inactive),> 100 µM (inactive),–,> 100 µM (inactive),> 100 µM (inactive),> 100 µM (inactive),> 100 µM (inactive),> 100 µM (inactive),> 100 µM (inactive),> 100 µM (inactive),> 100 µM (inactive),> 100 µM (inactive),> 100 µM (inactive),–
NC(=O)CCC(Nc1c2ccccc2nc2ccccc12)C(=O)O (stereo not given),> 100 µM (inactive),> 100 µM (inactive),–,> 100 µM (inactive),91 µM (inactive),> 100 µM (inactive),> 100 µM (inactive),> 100 µM (inactive),> 100 µM,65.8 µM (inactive),93.1 µM (inactive),–,15.3 µM (inactive),> 100 µM (inactive),> 100 µM (inactive),> 100 µM (inactive),> 100 µM (inactive),> 100 µM (inactive),71.3 µM (inactive),–
COc1ccc2nc3cc(Cl)ccc3c(Sc3ccc([N+](=O)[O-])cc3C)c2c1,> 100 µM (inactive),> 100 µM (inactive),> 100 µM (inactive),> 100 µM (inactive),> 100 µM (inactive),> 100 µM (inactive),74.3 µM (inactive),> 100 µM (inactive),> 100 µM,> 100 µM (inactive),–,> 100 µM (inactive),–,> 100 µM (inactive),> 100 µM (inactive),> 100 µM (inactive),> 100 µM (inactive),> 100 µM (inactive),> 100 µM (inactive),–
C=CCCCCCC(O)C(O)C/C=C\C/C=C\CC (stereo not given),> 18.8 µM (inactive),> 18.8 µM (inactive),–,> 18.8 µM (inactive),> 18.8 µM (inactive),> 18.8 µM (inactive),> 18.8 µM (inactive),> 18.8 µM (inactive),> 18.8 µM,> 18.8 µM (inactive),> 18.8 µM (inactive),> 18.8 µM (inactive),> 7.71 µM (inactive),> 18.8 µM (inactive),> 18.8 µM (inactive),> 18.8 µM (inactive),> 18.8 µM (inactive),> 18.8 µM (inactive),> 18.8 µM (inactive),–
Clc1cc2n[se]nc2cc1Cl,> 100 µM (inactive),> 100 µM (inactive),> 100 µM (inactive),–,> 100 µM (inactive),> 100 µM (inactive),> 100 µM (inactive),> 100 µM (inactive),> 100 µM,> 100 µM (inactive),> 100 µM (inactive),> 100 µM (inactive),84.1 µM (inactive),> 100 µM (inactive),> 100 µM (inactive),> 100 µM (inactive),> 100 µM (inactive),> 100 µM (inactive),> 100 µM (inactive),–
[N-]=[N+]=NC1C(Cl)C(=O)NC(=O)N1[C@H]1C[C@H](O)[C@@H](CO)O1 (stereo not given in full),> 100 µM (inactive),> 100 µM (inactive),> 100 µM (inactive),–,> 100 µM (inactive),> 100 µM (inactive),> 100 µM (inactive),–,–,> 100 µM (inactive),> 100 µM (inactive),> 100 µM (inactive),> 100 µM (inactive),> 100 µM (inactive),> 100 µM (inactive),> 100 µM (inactive),> 100 µM (inactive),> 100 µM (inactive),> 100 µM (inactive),–
CN(CCO)c1nc(=O)c2c([nH]1)CCC2,> 100 µM (inactive),> 100 µM (inactive),–,> 100 µM (inactive),> 100 µM (inactive),> 100 µM (inactive),> 100 µM (inactive),> 100 µM (inactive),> 100 µM,> 100 µM (inactive),> 100 µM (inactive),> 100 µM (inactive),> 100 µM (inactive),> 100 µM (inactive),> 100 µM (inactive),> 100 µM (inactive),> 100 µM (inactive),> 100 µM (inactive),> 100 µM (inactive),–
CC1=C(C(=O)Nc2c(C)cccc2C)C(c2ccc3c(c2)OCO3)C(C(=O)Nc2c(C)cccc2C)=C(C)N1,18.1 µM (inactive),13.7 µM (inactive),–,14.9 µM (inactive),17.5 µM (inactive),18.2 µM (inactive),16.7 µM (inactive),19.4 µM (inactive),–,16.6 µM (inactive),16.2 µM (inactive),16.9 µM (inactive),16.3 µM (inactive),18 µM (inactive),15.3 µM (inactive),16.5 µM (inactive),19.2 µM (inactive),22.2 µM (inactive),21.5 µM (inactive),–
CSc1nc(NC(=O)O)c(N(C(C)=O)C(=O)O)c(=O)n1C,> 100 µM (inactive),> 100 µM (inactive),> 100 µM (inactive),–,> 100 µM (inactive),> 100 µM (inactive),> 100 µM (inactive),> 100 µM (inactive),> 100 µM,> 100 µM (inactive),> 100 µM (inactive),> 100 µM (inactive),> 100 µM (inactive),> 100 µM (inactive),> 100 µM (inactive),> 100 µM (inactive),> 100 µM (inactive),> 100 µM (inactive),> 100 µM (inactive),–
C=C/C=C/NC(=O)OCc1ccccc1,–,> 100 µM (inactive),–,> 100 µM (inactive),> 100 µM (inactive),> 100 µM (inactive),> 100 µM (inactive),> 100 µM (inactive),–,> 100 µM (inactive),> 100 µM (inactive),> 100 µM (inactive),> 100 µM (inactive),> 100 µM (inactive),> 100 µM (inactive),> 100 µM (inactive),–,> 100 µM (inactive),> 100 µM (inactive),–
CSc1c(C#N)c(N)nc2c(/N=N\c3ccc(Cl)cc3)c(N)nn12,5.94 µM (inactive),2.86 µM (inactive),39.2 µM (inactive),6.19 µM (inactive),5.66 µM (inactive),2.16 µM (inactive),3.17 µM (inactive),2.39 µM (inactive),2.26 µM,3.27 µM (inactive),3.34 µM (inactive),2.13 µM (inactive),2.31 µM (inactive),–,6.14 µM (inactive),2.55 µM (inactive),5.85 µM (inactive),2.58 µM (inactive),0.34 µM (active),2.04 µM (inactive)
